Values of other authors as cited in patent publication US20100035992A1, “Methods and Compositions for Treating Inflammation and Inflammation-Related Pathologies” (priority 2008, published 2010).

Conditions: at 79° F.

- water solubility: 34 % w/v
SMILES: CS(C)(=O)=O [MSM, methylsulfonylmethane]
